Reference: patent EP4005565A1 (priority 2020, dated 2022)
Structures can show the parent of a compound that is named as a salt. Where two headings read alike, the source gives them in different places.

Columns and labels:
[1] = tested on: SARS-CoV-2 (viral strain INMI1); test: Antiviral activity assay with nucleoprotein readout (ELISA) in infected Vero E6 cells; assay type: cell-based; conditions: Severe acute respiratory syndrome coronavirus 2, Vero C1008, 72 h, read-out: IC50, SARS-CoV-2 replication (virus nucleoprotein in % of infected untreated control)
Method: The cell line is routinely maintained in DMEM supplemented with 1% glutamine, 1% penicillin/streptomycin and 10% fetal bovine serum and can be infected with SARS-CoV-2 (Ogando et al., 2020).
Exponentially growing Vero E6 cells were seeded into a 96-well plate at their optimal density in complete medium. […] Drug dilutions were performed in culture medium. Replicates for each concentration point were examined. At the end of the incubation period, antiviral activity was examined through both ELISA (Sino Biological, quantifying SARS-CoV-2 nucleoprotein) as well as a cytoprotection assay (toxicity effect examined through an inverted microscope). An inhibitory concentration 50% (IC50) value was calculated through interpolation of the dose-response curves generated.
The nucleoprotein was quantified by ELISA. Results are means ± SD of 2-4 experiments.

[2] = cited from earlier work
lysosomal uptake = conditions: at 10µM (Smieszek et al., 2020); cited from earlier work
[3] = molecular target: binding of the viral spike protein to ACE2 (UniProt P0DTC2+Q9BYF1); conditions: Fink et al. in prep; cited from earlier work
influenza A [4] = conditions: inhalation, cited from earlier work
influenza A [5] = conditions: inhaled at 6mg/kg/d (Fenton et al., 1977); cited from earlier work
influenza A [6] = conditions: 20 influenza A patients; inhalative 1%, 20mg/d, 3x20min, 4d (Hayden et al., 1980); cited from earlier work
[7] = cited from earlier work; remark: listed apart in the source
[8] = 7 volunteers and 3 influenza patients; 1.5%, up to 9h, 2x6h, 10-11h in 3d (Knight et al., 1979); cited from earlier work
SARS-CoV-2 = test: Treatment of a SARS-CoV-2 positive patient with nebulized amantadine hemisulfate (Example 2); assay type: in vivo; conditions: 0.4mg/ml inhaled every 2 h for 30min 6 times per day, 7 days
Text: A patient who had contact 2 days ago with a colleague who turned out to be SARS-CoV-2 positive the day after the meeting, consults their primary care physician. […] The RT-PCR test for SARS-CoV-2 of a nasal swab is also positive; HR is 78/min, BP is 120/80mmHg, BR is 15/min, peripheral O2 saturation is 97%, no further health issues are diagnosed. The patient is diagnosed with Covid-19 and isolated in home quarantine with daily doctor calls to evaluate their health status. […] The treatment is continued for 7 days. […] They recover within 14 days after treatment start.

Chain of binding of the viral spike protein to ACE2 (Q9BYF1 18-805, one chain of several): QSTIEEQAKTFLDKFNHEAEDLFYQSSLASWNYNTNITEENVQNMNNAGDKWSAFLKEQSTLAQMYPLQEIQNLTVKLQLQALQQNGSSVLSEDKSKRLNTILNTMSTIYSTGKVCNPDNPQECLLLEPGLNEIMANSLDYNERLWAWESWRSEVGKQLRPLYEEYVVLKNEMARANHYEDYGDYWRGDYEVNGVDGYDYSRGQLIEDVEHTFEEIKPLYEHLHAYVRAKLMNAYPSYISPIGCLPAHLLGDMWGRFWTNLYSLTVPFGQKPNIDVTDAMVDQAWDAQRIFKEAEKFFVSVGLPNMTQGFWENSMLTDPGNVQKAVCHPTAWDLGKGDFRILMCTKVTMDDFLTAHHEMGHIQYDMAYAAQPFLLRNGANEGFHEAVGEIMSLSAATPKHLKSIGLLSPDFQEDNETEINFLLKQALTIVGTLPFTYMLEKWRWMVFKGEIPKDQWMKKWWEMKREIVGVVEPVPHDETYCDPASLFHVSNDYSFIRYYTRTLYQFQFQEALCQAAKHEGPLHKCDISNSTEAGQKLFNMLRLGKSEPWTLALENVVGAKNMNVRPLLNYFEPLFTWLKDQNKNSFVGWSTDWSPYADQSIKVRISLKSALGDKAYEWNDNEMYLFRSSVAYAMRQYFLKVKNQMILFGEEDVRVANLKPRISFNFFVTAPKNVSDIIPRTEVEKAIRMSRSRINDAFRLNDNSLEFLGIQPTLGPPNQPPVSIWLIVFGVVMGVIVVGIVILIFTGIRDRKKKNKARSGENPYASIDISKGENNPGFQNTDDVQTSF

NC12CC3CC(CC(C3)C1)C2 [amantadine hydrochloride]
IC50 [1]: 88 µM

NC12CC3CC(CC(C3)C1)C2 [amantadine, 1-Adamantylamine]
plasma concentration after inhalative administration ([2]; healthy human volunteers, inhalation (Hayden et al., 1979)): 0.13 µM | plasma concentrations ([2]; patients receiving regularly 600 mg orally per day (Brenner et al., 1989)): up to 14.6 µM | reduced lysosomal uptake (lysosomal uptake): 50% | Interference with the binding of the viral spike protein to ACE2 on target cells [3]: can be ruled out | virus load (influenza A [4]; 40 mg/d retained dose (Wilson et al., 1980)): reduced virus load | effect on survival (influenza A [4]; 22h/day, 4mg/d retained dose (Walker et al., 1976)): positive effect on survival | virus load (influenza A [5]): reduced virus load | symptoms (influenza A [6]): improved symptoms | virus load (influenza A [6]): reduced virus load | serum concentrations in intoxication case ([7]; human, in vivo): 15.9 µM | plasma concentration at which aggressive behaviour was observed ([7]; patients, plasma): 5.5 to 6.6 µM | plasma concentration at which depression and confusion were observed ([7]; patients, plasma): 19.9 µM | plasma concentration at which seizures were observed ([7]; patients, plasma): 13.2 µM | safety of inhalative administration [8]: safe and irritation-free

amantadine hemisulfate
breathing problems during treatment (SARS-CoV-2): does not suffer from breathing problems | fever during treatment (SARS-CoV-2): transiently minor fever | time to recovery after treatment start (SARS-CoV-2): ≤ 14 days
